Key:
[1] = cited from earlier work; for Eutectic Concentration: Table 1, salts used to induce eutectic crystallization; for % Eutectic Concentration (wt./wt.) / Eutectic Temp.: solute in water
AT-1 tumor tissues = assay: Histology of AT-1 tumor tissues 2 days after freezing experiments on the directional solidification stage; design: species or system rat; details: frozen to −20° C., 400×
Method: FIGS. 7A-7F show images of histology preparations of AT-1 tumor tissues 2 days after the freezing experiments on the directional solidification stage. Control tissues are very similar in all cases (FIGS. 7A, 7C, and 7E). Some cytoplasmic retraction is seen after salt infusion in FIGS. 7C and 7E over the control sample (FIG. 7A), but overall viability appears high. After freezing the samples to −20° C., a reduction in the number and quality of nuclei in all frozen samples is noted (FIGS. 7B, 7D, and 7F). Nuclear changes include darkening, reduction in size of chromatin, pykonsis and in some cases loss of nuclear material. In addition, cell membranes in frozen salt infused samples are indistinct and difficult to identify. All of these changes appear accentuated in the KNO3 and KCl infused samples.

[2] = test system: AT-1 rat prostate tumor cells; assay: Post-thaw viability with half eutectic concentration KNO3 solution (Example 4); format: cell-based
Method: (§1) In freezing experiments with cell suspensions, a half eutectic concentration solution was mixed with cell culture media (Dulbecco's Modified Eagle's Medium/F-12) in 1 (salt solution): 2 (culture media) volume ratio.
AT-1 rat prostate tumor cells were cultured in vitro, as described above. Cultured AT-1 cells were separated from a culture flask by immersion in 0.05% (by volume) trypsin and 0.53 mM EDTA, and then suspended in 5% (by volume) fetal bovine serum (FBS)-supplemented medium such that the final trypsin concentration was <0.005% (by volume). After the separation, the cells were pelleted by centrifugation and the excess medium was removed. The cell pellet was re-suspended into various aqueous solutions (about 1.0 ml) before experiments and nominal cell concentration was about 2×10^6 cells/ml. The suspensions were stored in 1.5 ml microcentrifuge tube on ice (about 4° C.).
Liver tissues were also isolated from the rats.
The directional solidification stage, as described above, was used in the experiments. Controlled cooling and thawing rate were achieved by the DSC and directional solidification stage. Unless otherwise mentioned, cooling and thawing rates were 50° C./min.
For the directional solidification stage, fast thawing rates (about 200° C./min) were employed. […]
Post-thaw viabilities of AT-1 cell suspensions in various media were assessed. […]

[3] = test system: AT-1 rat prostate tumor cells; assay: Post-thaw viability of AT-1 cell suspensions in various media on the directional solidification stage (Hoechst/Propidium Iodide membrane integrity assay); format: cell-based; details: end temperature −30° C., 5° C./minute
Method: as §1
AT-1 rat prostate tumor cells were cultured in vitro under standard tissue culture conditions, as are known. AT-1 cells were suspended in each eutectic changing solution, and kept at about 4° C.
Cultured AT-1 cells were separated from a culture flask by immersion in 0.05% (by volume) trypsin and 0.53 mM EDTA, and then suspended in 5% (by volume) fetal bovine serum (FBS)-supplemented medium such that the final trypsin concentration was <0.005% (by volume). After the separation, the cells were pelleted by centrifugation and the excess medium was removed. […]
Post-thaw viabilities of AT-1 cell suspensions in various media were assessed for varying end temperature of the freezing and thawing protocol on the directional solidification stage. […]
The concentrations of these solutions were determined so that the use of these solutions would not result in excessive killing of the AT-1 cells due to high osmotic pressure. […]
Viability of the AT-1 cell suspensions was measured by a membrane integrity assay using Hoechst and Propidium Iodide. […] After incubation, viability was assessed under a fluorescent microscope by scoring more than 200 cells for each sample.

[4] = Onset temperature of eutectic solidification of AT-1 cell suspension media by DSC; format: physicochemical; details: AT-1 cell suspension medium
Method: Controlled cooling and thawing rate were achieved by the DSC and directional solidification stage. Unless otherwise mentioned, cooling and thawing rates were 5° C./min.
The onset temperature of the eutectic solidification was measured using the DSC, as described herein. Generally speaking, the viability of the AT-1 cells in the suspension solutions decreased with end temperature regardless of the media used. Note that the temperatures of noticeable viability drop to coincide with the eutectic crystallization temperatures of each suspension media. When the viability of the AT-1 cell suspension in the 1×NaCl (the onset of eutectic crystallization at about […]) is compared with that of KCl infused AT-1 cell suspension (the onset of eutectic crystallization at about −21° C.), there is 70% less viability at −30° C. in the KCl infused AT-1 cell suspension.

Compound	Eutectic Concentration [1] [% wt./wt.]	% Eutectic Concentration (wt./wt.) [1]	Eutectic Temp. [1] [°C]	further results
[Cl-].[Na+] [NaCl, sodium chloride]	23.6	23.6% (wt./wt.)	−21.8	eutectic point of the solution ([1]; thermodynamic equilibrium): approximately −21.1 °C
[Ca+2].[Cl-].[Cl-] [CaCl2]	–	29.8 % (wt./wt.)	−55	–
[Br-].[K+] [KBr]	–	–	−13.0	–
Cl.N [NH4Cl]	–	18.6 % (wt./wt.)	−15.8	–
[Cl-].[Cl-].[Mg+2] [MgCl2]	–	21.6 % (wt./wt.)	−33.6	–
O=S(=O)([O-])[O-].[Mg+2] [MgSO4]	–	19.0% (wt./wt.)	−3.9	–
OC[C@H]1O[C@@](CO)(O[C@H]2O[C@H](CO)[C@@H](O)[C@H](O)[C@H]2O)[C@@H](O)[C@@H]1O [Sucrose]	–	62.5 % (wt./wt.)	−13.5	–
O=[N+]([O-])[O-].[K+] [KNO3, potassium nitrate]	10.9	10.9% (wt./wt.)	−2.9	histological changes after freezing (nuclei, cell membranes) (AT-1 tumor tissues): accentuated; post-thaw viability ([2]; frozen to about −20° C.): 15.2±7.1%; viability of control samples ([2]; no freeze/thaw procedure): 92.1%
[Cl-].[K+] [KCl, potassium chloride]	19.7	19.7% (wt./wt.)	−11.1	less viability than AT-1 cell suspension in 1×NaCl [3]: 70%; onset of eutectic crystallization [4]: about −21 °C; histological changes after freezing (nuclei, cell membranes) (AT-1 tumor tissues): accentuated

— patent publication US20060122588A1, “Cryosurgery compositions and methods” (Regents of the University of Minnesota, priority 2002, published 2006)
